The source of these data is patent US11787850B2, “Peptidic TGF-beta antagonists” (priority 2015, dated 2023).

In data set [1] the test system is TGF-β-induced fibronectin and Slug expression in HaCaT cells. Put plainly: Western blot for fibronectin and Slug in HaCaT cells with pathway inhibitors. The format is cell-based, human. In general terms: In western blotting, separated proteins are transferred to a membrane and probed.
Data set [2] relates to TGF-β-induced EMT in HaCaT cells. The data set is described as follows: Immunofluorescence of F-actin and E-cadherin in HaCaT cells with pathway inhibitors. Type of data set: cell-based, human. The conditions noted are these: 0.5 μM SB431542, 1 μM SB203580, 10 μM U0126.
Description: HaCaT cells transfected with control or CD109 siRNA were treated for 36 hrs with 100 pM TGF-β1, in the presence or absence of 0.5 μM SB431542, 1 μM SB203580 and/or 10 μM U0126. Cells were fixed and stained for F-actin, E-cadherin and with DAPI. […] (FIG. 16B) Densitometry of F-actin staining (mean of n=3 independent experiments±SEM; *P<0.05).
Cells were treated with 0-100 pM TGF-β1, in the presence or absence of 10 μM U0126 (Cell signaling Technologies), 1 μM SB203580, 0.5 μM SB431542 (both from Ascent) for 36-40 hrs. Cells were fixed with 4% paraformaldehyde for 10 min at 37° C. and non-specific sites were blocked with 10% NGS, 0.1% Triton X-100 in PBS. E-cadherin was detected using a FITC-conjugated anti-E-cadherin antibody (BD Biosciences), followed by an AlexaFluor488™-conjugated anti-FITC antibody (Molecular Probes). F-actin was detected using Rhodamin-conjugated phalloidin (Cytoskeleton, Denvers, Colo.) and nuclei were stained with DAPI (Sigma Aldrich). Images were acquired with an Olympus BX60 fluorescent microscope coupled to a QColor3™ camera (Olympus) using Image ProPlus™ 6.0 software.
The subject of data set [3] is TGF-β1-induced Smad3-driven (CAGA12-lux) transcriptional activity. The data set is described as follows: Luciferase reporter assay in HEK293-(CAGA)12 cells. The following applies: 100 pM TGF-β1, 18 hours. Type of data set: cell-based. On the procedure:
FIGS. 5A and 5B illustrate that some small molecular weight CD109-based peptides (Peptide A, P28, P21 and […]) inhibit TGF-β1-induced Smad3-driven transcriptional activity. […] Cell lysates were analyzed for luciferase activity and data are expressed as mean±standard deviation of relative light units (RLU). […] Under the conditions tested, peptide A, P28, P21 and P16 inhibited TGF-β1-induced transcriptional (CAGA12-lux) activity.
FIG. 6 illustrates that the small molecular weight CD109-based peptide P16 (but not P16-2, P11 or X-4) inhibit TGF-β1-induced Smad3-driven transcriptional activity. HEK293 cells stably transfected with the Smad3-responsive CAGA12-lux luciferase reporter were treated for 18 hours without (−) or with (+) […] TGF-β1 in the presence or absence of 10 nM of P16-2 (16 aa scrambled control), P11 (11 aa sequence), P16 (16 aa), X-4 (11 aa) or Tris-buffer (buffer control) as indicated. Cell lysates were analyzed for luciferase activity and data are expressed as mean±standard deviation of luciferase activity. Results are shown as luciferase activity for the peptides used.
FIG. 8 illustrates that DMSO treatment enhances the TGF-β inhibitory activity of Peptide X but not P21 or P16. HEK293 cells stably transfected with the Smad3-responsive CAGA12-lux luciferase reporter were treated for 18 hours without (−) or with (+) 100 pM TGF-β1 in the presence or absence of Peptide X (PX), P21 or P16. The peptides were previously dissolved in Tris buffer and left untreated or treated with DMSO prior to addition to the cells. Addition of Tris buffer or DMSO alone served as additional controls. Cell lysates were analyzed for luciferase activity and data are expressed as mean±standard deviation of luciferase activity. Results are shown as luciferase activity. […] P16 and P21 inhibited TGF-β1-induced CAGA12-lux activity and these effects were not enhanced by DMSO treatment. […]
FIG. 25 is a graph showing the ability of CD109-based peptides to inhibit TGF-β-induced, Smad3-driven transcriptional activity. HEK293 cells stably transfected with the Smad3-responsive CAGA12-lux luciferase reporter were treated for 18 hours without (−) or with (+) 100 pM TGF-b1 in the presence or absence of 10 nM of P16, P16.2, peptide A, P15, P14, P13, P12, P11, peptide X, P21, or 2% NH4OH buffer (buffer control) as indicated. Cell lysates were analyzed for luciferase activity and data are expressed as mean±standard deviation of luciferase activity.
HEK293 cells stably transfected with the Smad3-responsive CAGA12-lux luciferase reporter construct were incubated with dimeric or monomeric forms of peptide A as indicated and treated with 100 pM TGF-b overnight. Cell lysates were analyzed for luciferase activity. Data are presented as fold-activation compared to TGF-b1 treatment alone (scaled to 1.0). M+D, mixture of monomer and dimer.
Luciferase reporter assays were performed using a HEK293-(CAGA)12 cell line that stably expresses a TGF-β/Smad3-responsive (CAGA)12-luciferase reporter gene [Cash et al. 2013]. HEK293-(CAGA)12 cells were grown in 24-well plates to 70-80% confluency and serum-starved overnight. Cells were washed with PBS and treated with or without TGF-β1 in presence or absence of various CD109-based peptides as indicated in the figure legends. Cells were then washed twice with cold PBS and solubilized in 100 μl of Passive Lysis Buffer (Promega) for 30 min at 4° C. The cell lysates were assayed for luciferase and β-galactosidase activities using commercially available kits (BD Biosciences).
HEK293 cells stably transfected with the Smad3-responsive CAGA12-lux luciferase reporter were treated for 18 hours without (−) or with (+) 100 pM TGF-β1 in the presence or absence of 10 nM (FIG. 5A) or 5 nM (FIG. 5B) of peptide A (Pep A, 161 aa), P28 (28 aa peptide), P21 (21 aa peptide), P16 (16 aa peptide), P16.2 scrambled peptide (16 aa, scrambled P16 sequence) or Tris-buffer (negative control for peptides) as indicated. […]
(In general: Reporter assays use an easily measured gene product as a stand-in for the process of interest.)

Data set [4] is described as follows: Size-exclusion chromatography on Superdex Peptide 10/300GL column. Type of data set: physicochemical. The following applies: for formation of aggregates by size-exclusion chromatography: peptide in PBS, Superdex Peptide 10/300GL, 0.6 ml/min; for Aggregation?: size-exclusion chromatography, peptide dissolved in PBS. On the procedure: Approximately 200 μg of each peptide X (40 amino acids), X-1 (28 amino acids), peptide A (161 amino acids), P11 (11 amino acids), P16 (16 amino acids), P21 (21 amino acids, P16-2 (16 amino acids, scrambled sequence control), X-3 (16 amino acids) and X-4 (11 amino acids) were dissolved in phosphate-buffered saline (PBS) and loaded onto a Superdex Peptide 10/300GL column. The column was eluted with PBS at a flow rate of 0.6 mL/min and eluents were analyzed for peptide content by measuring relative absorbance at a wavelength of 215 nm. (FIGS. 3A and 3B) The data is plotted with relative absorbance (Y-axis) against elution volume (X-axis). Peptides 1-9 are color coded (A—peptides (1) to (5); B (peptides (6) to (9)). As shown on panel A, peptide X (peptide 1, black line) elution profile indicated two major peaks at approximately 8 mL and 11 mL which correspond to molecular weights greater than 12.4 kDa. The theoretical molecular weight of peptide X is 4.7 kDa which is expected to elute from the column at approximately 15 mL. Under the conditions tested, peptide X existed as high molecular weight aggregates with minimal soluble (monomeric) form. On the other hand, P16 (peptide 5, green line) elution profile indicated a broad peak between 14-22 mL which is expected to contain peptides of between 0.1 and 6 kDa and is consistent with its theoretical molecular weight of 2.01 kDa.
FIG. 4 illustrates the standard curve used for size-exclusion chromatography of standard peptides using the Superdex Peptide 10/300 GL column (results provided in FIG. 3). A pool of standard peptides of various molecular weights (1. cytochrome c (Mr 12.384 kDa) 1 mg/mL; 2. aprotinin (Mr 6.512 kDa) 2 mg/mL; 3. vitamin B12 (Mr 1.355 kDa) 0.1 mg/mL; 4. (Gly)3 (Mr 0.189 kDa) 0.1 mg/mL; 5. Gly (Mr 0.075 kDa) 7.8 mg/mL) were subjected to size-exclusion chromatography using the Superdex Peptide 10/300 GL column (flow rate 0.5 ml/min at room temperature, sample volume of 50 μL, eluent 0.05M phosphate, 0.15 M NaCl, ph 7.0). The resulting chromatogram (absorbance at 215 nm (in mAU, left Y axis) and conductivity (in mS/cm, right Y axis, in function of volume of elution (in mL)) indicates the elution profiles of the above peptides with high MW peptides eluting in earlier fractions and lower MW peptides eluting in later fractions as expected. The molecular weights of peptides were plotted against elution volume generating a standard curve (not shown).
More specifically, approximately […] of each peptide X (40 amino acids), X-1 (28 amino acids), peptide A (161 amino acids), P11 (11 amino acids), P16 (16 amino acids), P21 (21 amino acids, P16-2 (16 amino acids, scrambled sequence control), X-3 (16 amino acids) and X-4 (11 amino acids) were dissolved in phosphate-buffered saline (PBS) and loaded onto a Superdex Peptide 10/300GL column. The column was eluted with PBS at a flow rate of 0.6 ml/min and eluants were analyzed for peptide content by measuring relative absorbance at a wavelength of 215 nm. The data were plotted with relative absorbance (Y-axis) against elution volume (X-axis). […] The theoretical molecular weight of peptide X is 4.7 kDa which is expected to elute from the column at approximately 15 mL. […] P16 (peptide 5) elution profile indicated a peak between 14-22 mL which was expected to contain peptides of between 0.1 and 6 kDa and is consistent with its theoretical molecular weight of 2.01 kDa.
More specifically, a pool of standard proteins of various molecular weights were subjected to size-exclusion chromatography using the Superdex Peptide 10/300 GL column. The resulting chromatogram indicated the elution profiles of the peptides with high molecular weight peptides eluting in earlier fractions and lower molecular weight peptides eluting in later fractions as expected. The molecular weights of peptides were plotted against elution volume generating a standard curve (not shown) and was used to calculate molecular weights of the CD109-based peptides. […]
For orientation: Size exclusion chromatography separates by hydrodynamic size, large species first.

Data set [5] deals with TGF-β1-induced Smad3-driven (CAGA12-lux) transcriptional activity. Put plainly: Luciferase reporter assay in HEK293-(CAGA)12 cells. The format is cell-based. The following applies: 10 nM or 5 nM peptide, 100 pM TGF-β1, 18 hours (FIG. 5).
Data set [6] relates to TGF-β-induced migration of squamous cell carcinoma (A431) cells. The data set is described as follows: Scratch (wound closure) migration assay, A431 cells. Type of data set: cell-based. The following applies: 10 nM peptide, 100 pM TGF-β1, 24 hours (FIG. 10). Here is the method: FIG. 10A and FIG. 10B illustrate that peptides B, E and X-1 inhibit TGF-β-induced cellular migration of A431 cells in vitro. Results are shown prior to treatment (0 hr, top panels) and after treatment (24 hr, bottom panels) for each of the peptides used. (See FIG. 2 and Table 1 for the amino acid sequence identity of the peptides).
A431 cells were grown to 80-90% confluence and serum-starved overnight. The next day, cells were scratched with a plastic pipette tip (time 0 hour) and then left untreated or treated for 24 hours with 100 pM TGF-β1 alone or in the presence of P16 as indicated. (FIG. 27A) Digital images were captured at 0 h and 24 h using an EVOS XL Core microscope. (FIG. 27B) Micrographs were subsequently quantitated to determine the percentage of the wound area that had closed following 24 hours in the presence or absence of P16, as indicated.
Cells were scratched with a pipette tip and treated without or with 100 pM TGF-b1 alone or in the presence of 10 nM Peptide A or Peptide A1 (C31S mutant). Pictures were taken at 0 and 24 hrs. Peptide A but not Peptide A1 inhibits TGF-b-induced migration in A431 cells. Peptide A contains monomeric and dimeric forms whereas Peptide A1 contains a C31S mutation to prevent intermolecular disulfide bond formation so that it forms monomers only.
(§1) Squamous cell carcinoma (A431) or breast cancer (MDA-MB-231) cells were grown to 80-90% confluence and serum-starved overnight. The next day, cells were scratched with a plastic pipette tip (time 0 hour) and then left untreated or treated for 24 hours with 100 pM TGF-β1 alone or in the presence of 10 nM peptide B (100 aa), E (67 aa), or X1 (P28, 28 aa). Digital images were captured at 0 h and 24 h (20× magnification) using an EVOS XL Core microscope.

Data set [7] concerns TGF-β-induced migration of breast cancer (MDA-MB-231) cells. The data set is described as follows: Scratch migration assay, MDA-MB-231 cells. The format is cell-based. The conditions noted are these: 10 nM peptide, 100 pM TGF-β1, 24 hours (FIG. 11). Here is the method:
FIG. 11A and FIG. 11B illustrate that peptides B, E and X-1 inhibit TGF-β-induced cellular migration of MDA-MB-231 cells in vitro. Results are shown prior to treatment (0 hr, top panels) and after treatment (24 hr, bottom panels) for each of the peptides used.
as §1

As to `C[S+]([O-])c1ccc(-c2nc(-c3ccncc3)c(-c3ccc(F)cc3)[nH]2)cc1` (stereo not drawn) [SB203580], the fibronectin production result in data set [1] (CD109 siRNA HaCaT cells, 100 pM TGF-β1, 16 hrs, 0.5 μM SB431542, 1 μM SB203580, 10 μM U0126) was “reduced”. Further, the Slug expression result in data set [1] (control siRNA and CD109 siRNA HaCaT cells, absence or presence of TGF-β, 1 μM SB203580) is “increases”. Besides, the “effect mediated by CD109 siRNA transfection on actin stress fibers appearance and relocalization of E-cadherin” value in data set [2] (100 pM TGF-β1, 36 hrs) is reported as “reduces (but does not abrogate)”. The “effect on EMT markers in the absence of TGF-β” value in data set [2] (data not shown) is on record as “no effect”.
On to ETWIWLDTNMGSRIYQEFEVT [Peptide P21], for which the “inhibition of TGF-β1-induced CAGA12-lux activity, peptide pre-treated with DMSO” value in data set [3] (0.5% DMSO pre-treatment (FIG. 8)) is “not enhanced”. For the same molecule, in data set [3] (no DMSO (FIG. 8)), the “inhibition of TGF-β1-induced CAGA12-lux activity, peptide in Tris buffer left untreated” value is recorded as “inhibited”. In addition, in data set [4], the “formation of aggregates by size-exclusion chromatography” value is listed as “did not” and the “Aggregation?” value is given as “Not aggregated”. For the same molecule, the “inhibition of TGF-β1-induced CAGA12-lux activity” value in data set [5] is “inhibited”.
As for “ETWIWLDTNMGSRIYQEFEVTVPDSITS (Peptide X-1)”, in data set [6], the “inhibition of TGF-β-induced cellular migration of A431 cells” value (shortened to “inhibition … of A431 cells”) is given as “inhibit”. In addition, in data set [4], the “formation of aggregates by size-exclusion chromatography” value is given as “formed aggregates” and the “Aggregation?” value is “Aggregated”. Besides, the “inhibition of TGF-β1-induced CAGA12-lux activity” value in data set [5] is listed as “inhibited”. Also, the “inhibition of TGF-β-induced cellular migration of MDA-MB-231 cells” value (“inhibition … of MDA-MB-231 cells” below) in data set [7] is on record as “inhibit”.

B1: B: CD109-based peptide (100 aa), SEQ ID NO: 19 (protein)
chain: TMENVVHELELYNTGYYLGMFMNSFAVFQECGLWVLTDANLTKDYIDGVYDNAEYAERFMEENEGHIVDIHDFSLGSSPHVRKHFPETWIWLDTNMGSRIYQEFEVT
modifications: Peptide B
For B1, the “inhibition … of A431 cells” value in data set [6] is “inhibit”. Also, the “inhibition … of MDA-MB-231 cells” value in data set [7] was “inhibit”.

B2: E: CD109-based peptide (67 aa), SEQ ID NO: 20 (protein)
chain: LTKDYIDGVYDNAEYAERFMEENEGHIVDIHDFSLGSSPHVRKHFPETWIWLDTNMGSRIYQEFEVTV
modifications: Peptide E
In the case of B2, the “inhibition … of A431 cells” value in data set [6] was “inhibit”. Besides, the “inhibition … of MDA-MB-231 cells” value in data set [7] is given as “inhibit”.
